A word on the MIC: it is the least concentration at which growth counts as inhibited. High values mean a need for much substance, low ones inhibition by little substance.

The results in this text go back to ChEMBL document CHEMBL3351381, “Synthesis, structure-activity relationship studies, and antibacterial evaluation of 4-chromanones and chalcones, as well as olympicin A and derivatives” (J Med Chem, 2014).

Common to all, as to format: functional
For experiment [1], the system named is Escherichia coli. The experiment can be described thus: Antimicrobial activity against Escherichia coli K-12 by microbroth dilution method.
The next experiment relates to Pseudomonas aeruginosa. Kind of experiment: Antimicrobial activity against Pseudomonas aeruginosa PAO1 at >200 ug/ml by microbroth dilution method. Background: Dilution methods test growth across graded concentrations, often in twofold steps.
The subject of experiment [2] is Mycobacterium tuberculosis. Kind of experiment: Antimicrobial activity against Mycobacterium tuberculosis H37Rv by microbroth dilution method.
Another experiment concerns Klebsiella pneumoniae. The experiment can be described thus: Antimicrobial activity against Klebsiella pneumoniae ATCC 33495 at >200 ug/ml by microbroth dilution method.
The test system of experiment [3] is Escherichia coli. The experiment can be described thus: Antimicrobial activity against tolC-deficient Escherichia coli by microbroth dilution method.
Experiment [4] concerns Staphylococcus aureus. Kind of experiment: Antimicrobial activity against methicillin-resistant Staphylococcus aureus NRS 70 by microbroth dilution method.
In experiment [5] the test system is Staphylococcus aureus. The experiment can be described thus: Antimicrobial activity against methicillin-sensitive Staphylococcus aureus ATCC 29213 by microbroth dilution method.
Another experiment deals with Enterococcus faecalis. The experiment can be described thus: Antimicrobial activity against Enterococcus faecalis ATCC 33186 by microbroth dilution method.

The structures appear in SMILES notation. ≈ marks a conversion by molar mass, not a printed value.

In the case of `CCCCCCCCCC1C/C(=N\OC)c2c(O)cc(O)cc2O1` (stereo not drawn), the MIC against Escherichia coli [1] was > 200 µg/mL; in the experiment with Pseudomonas aeruginosa, > 200 µg/mL; in experiment [2], 200 µg/mL (≈ 596 µM); against Klebsiella pneumoniae it was > 200 µg/mL; in the experiment with Escherichia coli [3], > 200 µg/mL; against Staphylococcus aureus [4] it was 25 µg/mL (≈ 74.5 µM). Also, the MIC against Staphylococcus aureus [5] was 100 µg/mL (≈ 298 µM); in the experiment with Enterococcus faecalis, > 200 µg/mL.
In the case of `COCOc1cc(OCOC)c2c(c1)OC(CC(C)CCC=C(C)C)CC2=O` (stereo not drawn), the MIC (against Escherichia coli [1]; with Pseudomonas aeruginosa; in experiment [2]; in the experiment with Klebsiella pneumoniae; in the experiment with Escherichia coli [3]; in the experiment with Staphylococcus aureus [4]) was > 200 µg/mL each time. Further, the minimal inhibitory concentration (MIC) against Staphylococcus aureus [5] and against Enterococcus faecalis was > 200 µg/mL each time.
As to `O=C1CC(C2CCCC2)Oc2cc(O)cc(O)c21` (stereo not drawn), the MIC against Escherichia coli [1] is > 200 µg/mL; against Pseudomonas aeruginosa, > 200 µg/mL; in experiment [2], 200 µg/mL (≈ 806 µM); in the experiment with Klebsiella pneumoniae it was > 200 µg/mL; with Escherichia coli [3] it was 6.25 µg/mL (≈ 25.2 µM); in the experiment with Staphylococcus aureus [4], 50 µg/mL (≈ 201 µM). The minimal inhibitory concentration (MIC) in the experiment with Staphylococcus aureus [5] is 100 µg/mL (≈ 403 µM); in the experiment with Enterococcus faecalis, 50 µg/mL (≈ 201 µM).
Take `O=C1CC2(CCCC2)Oc2cc(O)ccc21`: the minimum inhibitory concentration (MIC) in the experiment on Escherichia coli [1] was > 200 µg/mL; against Pseudomonas aeruginosa, > 200 µg/mL; in experiment [2], 200 µg/mL (≈ 916 µM); in the experiment with Klebsiella pneumoniae, > 200 µg/mL; with Escherichia coli [3], 100 µg/mL (≈ 458 µM); in the experiment with Staphylococcus aureus [4], > 200 µg/mL. Also, the MIC with Staphylococcus aureus [5] and in the experiment on Enterococcus faecalis was > 200 µg/mL each time.
Consider `O=C1CC2(CCCCC2)Oc2cc(O)ccc21`, for which the MIC is > 200 µg/mL against Escherichia coli [1]; > 200 µg/mL in the experiment on Pseudomonas aeruginosa; 100 µg/mL (≈ 431 µM) in experiment [2]; > 200 µg/mL against Klebsiella pneumoniae; 50 µg/mL (≈ 215 µM) in the experiment with Escherichia coli [3]; 200 µg/mL (≈ 861 µM) in the experiment on Staphylococcus aureus [4]. Also, the minimal inhibitory concentration (MIC) in the experiment with Staphylococcus aureus [5] was 200 µg/mL (≈ 861 µM); against Enterococcus faecalis, > 200 µg/mL.
Take `COCOc1ccc2c(c1)OC(C1=CCC3CC1C3(C)C)CC2=O` (stereo not drawn): the minimum inhibitory concentration (MIC) with Escherichia coli [1] is > 200 µg/mL; in the experiment on Pseudomonas aeruginosa it was > 200 µg/mL; in experiment [2], 100 µg/mL (≈ 304 µM); in the experiment with Klebsiella pneumoniae it was > 200 µg/mL; with Escherichia coli [3], 6.25 µg/mL (≈ 19 µM); in the experiment with Staphylococcus aureus [4], > 200 µg/mL. In addition, the minimal inhibitory concentration (MIC) with Staphylococcus aureus [5] and with Enterococcus faecalis was > 200 µg/mL each time.
On to `CCCCCCOc1cc(O)cc(O)c1C(=O)C(C)CC` (racemic), for which the MIC against Escherichia coli [1] was > 200 µg/mL; with Pseudomonas aeruginosa, > 200 µg/mL; in experiment [2], 100 µg/mL (≈ 340 µM); with Klebsiella pneumoniae, > 200 µg/mL; with Escherichia coli [3], 3.13 µg/mL (≈ 10.6 µM); in the experiment on Staphylococcus aureus [4], 1.56 µg/mL (≈ 5.3 µM). Further, the MIC against Staphylococcus aureus [5] and against Enterococcus faecalis was 1.56 µg/mL (≈ 5.3 µM) each time.
In the case of `CCCCCCCCCC1CC(=O)c2ccc(O)cc2O1` (stereo not drawn), the minimum inhibitory concentration (MIC) (in the experiment with Escherichia coli [1]; against Pseudomonas aeruginosa; in experiment [2]; against Klebsiella pneumoniae; against Escherichia coli [3]; against Staphylococcus aureus [4]) was > 200 µg/mL throughout. The MIC in the experiment with Staphylococcus aureus [5] is > 200 µg/mL; in the experiment with Enterococcus faecalis, 200 µg/mL (≈ 689 µM).
`CCCCCCCC1CC(O)c2ccc(O)cc2O1` (stereo not drawn): the MIC was > 200 µg/mL in the experiment with Escherichia coli [1]; > 200 µg/mL with Pseudomonas aeruginosa; 25 µg/mL (≈ 94.6 µM) in experiment [2]; > 200 µg/mL with Klebsiella pneumoniae; 6.25 µg/mL (≈ 23.6 µM) against Escherichia coli [3]; 12.5 µg/mL (≈ 47.3 µM) with Staphylococcus aureus [4]. Further, the MIC was 12.5 µg/mL (≈ 47.3 µM) with Staphylococcus aureus [5] and 25 µg/mL (≈ 94.6 µM) in the experiment on Enterococcus faecalis.
In the case of `CCCCCCCCCC1CC(O)c2ccc(O)cc2O1` (stereo not drawn), the MIC is > 200 µg/mL in the experiment with Escherichia coli [1]; > 200 µg/mL in the experiment on Pseudomonas aeruginosa; > 200 µg/mL in experiment [2]; > 200 µg/mL in the experiment on Klebsiella pneumoniae; 12.5 µg/mL (≈ 42.7 µM) with Escherichia coli [3]; 25 µg/mL (≈ 85.5 µM) in the experiment with Staphylococcus aureus [4]. The values for the minimum inhibitory concentration (MIC) against Staphylococcus aureus [5] and in the experiment with Enterococcus faecalis were 20 µg/mL (≈ 68.4 µM) and 50 µg/mL (≈ 171 µM), respectively.
Regarding `CCCCCCC1C/C(=N\O)c2c(O)cc(O)cc2O1` (stereo not drawn), the minimum inhibitory concentration (MIC) is > 200 µg/mL in the experiment on Escherichia coli [1]; > 200 µg/mL with Pseudomonas aeruginosa; 100 µg/mL (≈ 358 µM) in experiment [2]; > 200 µg/mL against Klebsiella pneumoniae; 3.13 µg/mL (≈ 11.2 µM) against Escherichia coli [3]; 6.25 µg/mL (≈ 22.4 µM) with Staphylococcus aureus [4]. Also, the MIC was determined as 6.25 µg/mL (≈ 22.4 µM) against Staphylococcus aureus [5] and 12.5 µg/mL (≈ 44.7 µM) in the experiment with Enterococcus faecalis.
